According to ChEMBL document CHEMBL1158657, “Improved antitumor activity by modification of nogalamycin” (1979):
pIC50: −log10 of the molar value. In brackets after ≈: the same amount, converted by molar mass. Activity calls are given as the source filed them. The rule behind the calls is not given here.

Columns and labels:
Assay type in all cases: functional
[1] = test system: P388; assay: Antitumor activity against mouse P388 cells xenografted in mouse assessed as increase in life span at 0.5 mg/kg/day, ip after 9 days; conditions: route intraperitoneal
[2] = test system: B16; assay: Antitumor activity against mouse B16 cells xenografted in mouse assessed as increase in life span at 2 mg/kg/day, ip after 9 days; conditions: route intraperitoneal
[3] = test system: L1210; assay: Antitumor activity against mouse L1210 cells xenografted in mouse assessed as increase in life span at 2 mg/kg/day, ip after 9 days; conditions: route intraperitoneal
[4] = test system: B16; assay: Antitumor activity against mouse B16 cells xenografted in mouse assessed as increase in life span at 0.5 mg/kg/day, ip after 9 days; conditions: route intraperitoneal
[5] = test system: L1210; assay: Antitumor activity against mouse L1210 cells xenografted in mouse assessed as increase in life span at 0.5 mg/kg/day, ip after 9 days; conditions: route intraperitoneal
[6] = test system: P388; assay: Antitumor activity against mouse P388 cells xenografted in mouse assessed as increase in life span at 1 mg/kg/day, iv after 9 days
[7] = test system: P388; assay: Antitumor activity against mouse P388 cells xenografted in mouse assessed as increase in life span at 0.5 mg/kg/day, iv after 9 days
[8] = test system: B16; assay: Antitumor activity against mouse B16 cells xenografted in mouse assessed as increase in life span at 1 mg/kg/day, ip after 9 days; conditions: route intraperitoneal
[9] = test system: L1210; assay: Antitumor activity against mouse L1210 cells xenografted in mouse assessed as increase in life span at 1 mg/kg/day, ip after 9 days; conditions: route intraperitoneal
[10] = test system: P388; assay: Antitumor activity against mouse P388 cells xenografted in mouse assessed as increase in life span at 2 mg/kg/day, ip after 9 days; conditions: route intraperitoneal
[11] = test system: P388; assay: Antitumor activity against mouse P388 cells xenografted in mouse assessed as increase in life span at 12.5 mg/kg/day, po after 9 days
[12] = test system: L1210; assay: Antitumor activity against mouse L1210 cells xenografted in mouse assessed as increase in life span at 0.25 mg/kg/day, ip after 9 days; conditions: route intraperitoneal
[13] = test system: B16; assay: Antitumor activity against mouse B16 cells xenografted in mouse assessed as increase in life span at 0.25 mg/kg/day, ip after 9 days; conditions: route intraperitoneal
[14] = test system: P388; assay: Antitumor activity against mouse P388 cells xenografted in mouse assessed as increase in life span at 0.25 mg/kg/day, ip after 9 days; conditions: route intraperitoneal
[15] = test system: P388; assay: Antitumor activity against mouse P388 cells xenografted in mouse assessed as increase in life span at 1 mg/kg/day, ip after 9 days; conditions: route intraperitoneal
[16] = test system: P388; assay: Antitumor activity against mouse P388 cells xenografted in mouse assessed as increase in life span at 0.25 mg/kg/day, iv after 9 days
[17] = test system: P388; assay: Antitumor activity against mouse P388 cells xenografted in mouse assessed as increase in life span at 2 mg/kg/day, iv after 9 days
[18] = test system: L1210; assay: Cytotoxicity against mouse L1210 cells; conditions: Mus musculus, L1210, read-out: ID50
[19] = test system: B16; assay: Antitumor activity against mouse B16 cells xenografted in mouse assessed as increase in life span at 5 mg/kg/day, ip after 9 days; conditions: route intraperitoneal
[20] = test system: P388; assay: Antitumor activity against mouse P388 cells xenografted in mouse assessed as increase in life span at 3.13 mg/kg/day, iv after 9 days
[21] = test system: P388; assay: Antitumor activity against mouse P388 cells xenografted in mouse assessed as increase in life span at 12.5 mg/kg/day, iv after 9 days
[22] = test system: L1210; assay: Antitumor activity against mouse L1210 cells xenografted in mouse assessed as increase in life span at 6.25 mg/kg/day, ip after 9 days; conditions: route intraperitoneal
[23] = test system: Lewis lung carcinoma cell line; assay: Antitumor activity against mouse LLC cells xenografted in mouse assessed as increase in life span at 12.5 mg/kg/day, ip after 9 days; conditions: route intraperitoneal
[24] = test system: B16; assay: Antitumor activity against mouse B16 cells xenografted in mouse assessed as increase in life span at 6 to 12 mg/kg/day, ip after 9 days; conditions: route intraperitoneal
[25] = test system: B16; assay: Antitumor activity against mouse B16 cells xenografted in mouse assessed as increase in life span at 12.5 mg/kg/day, ip after 9 days; conditions: route intraperitoneal
[26] = test system: L1210; assay: Antitumor activity against mouse L1210 cells xenografted in mouse assessed as increase in life span at 3.13 mg/kg/day, ip after 9 days; conditions: route intraperitoneal
[27] = test system: B16; assay: Antitumor activity against mouse B16 cells xenografted in mouse assessed as increase in life span at 20 mg/kg/day, ip after 9 days; conditions: route intraperitoneal
[28] = test system: P388; assay: Antitumor activity against mouse P388 cells xenografted in mouse assessed as increase in life span at 3.13 mg/kg/day, ip after 9 days; conditions: route intraperitoneal
[29] = test system: MC-38; assay: Antitumor activity against mouse Colon 38 cells xenografted in mouse assessed as increase in life span at 25 mg/kg, sc Q7D after 2 days; conditions: route subcutaneous
[30] = test system: L1210; assay: Inhibition of RNA synthesis in mouse L1210 cells; conditions: read-out: ID50 (the source's name)
[31] = test system: B16; assay: Antitumor activity against mouse B16 cells xenografted in mouse assessed as increase in life span at 2.5 mg/kg/day, ip after 9 days; conditions: route intraperitoneal
[32] = test system: Colon 26; assay: Antitumor activity against mouse Colon 26 cells xenografted in mouse assessed as increase in life span at 25 mg/kg, ip Q4D after 2 days; conditions: route intraperitoneal
[33] = test system: P388; assay: Antitumor activity against mouse P388 cells xenografted in mouse assessed as increase in life span at 12.5 mg/kg/day, ip after 9 days; conditions: route intraperitoneal
[34] = Antitumor activity against mouse CD8F1 cells xenografted in mouse assessed as increase in life span at 25 mg/kg, sc Q7D after 5 days; conditions: route subcutaneous
[35] = test system: L1210; assay: Antitumor activity against mouse L1210 cells xenografted in mouse assessed as increase in life span at 12.5 mg/kg/day, ip after 9 days; conditions: route intraperitoneal
[36] = test system: P388; assay: Antitumor activity against mouse P388 cells xenografted in mouse assessed as increase in life span at 6.25 mg/kg/day, iv after 9 days
[37] = test system: B16; assay: Antitumor activity against mouse B16 cells xenografted in mouse assessed as increase in life span at 10 mg/kg/day, ip after 9 days; conditions: route intraperitoneal
[38] = test system: L1210; assay: Inhibition of RNA synthesis in mouse L1210 cells at 10 nmole/ml
[39] = test system: P388; assay: Antitumor activity against mouse P388 cells xenografted in mouse assessed as increase in life span at 6.25 mg/kg/day, ip after 9 days; conditions: route intraperitoneal
[40] = test system: L1210; assay: Inhibition of DNA synthesis in mouse L1210 cells; conditions: read-out: ID50 (the source's name)

COc1cccc2c1C(=O)c1c(O)c3c(c(O)c1C2=O)C[C@@](O)(C(=O)CO)C[C@@H]3O[C@H]1C[C@H](N)[C@H](O)[C@H](C)O1 [DOXORUBICIN]
Activity [1]: 137% | Activity [2]: 158% | Activity [3]: 40% | Activity [4]: 160% | Activity [5]: 29% | Activity [6]: 10% | Activity [7]: 3% | Activity [8]: 166% | Activity [9]: 38% | Activity [10]: 7% | Activity [11]: inactive | Activity [12]: 20% | Activity [13]: 127% | Activity [14]: 61% | Activity [15]: 158% | Activity [16]: 8% | Activity [17]: 29%

CO[C@H]1C[C@@](C)(O)Cc2cc3c(c(O)c21)C(=O)c1c(O)cc2c(c1C3=O)O[C@@H]1O[C@@]2(C)[C@H](O)[C@@H](N(C)C)[C@@H]1O
IC50 [18]: 0.061 µg/mL (≈ 0.113 µM) | Activity [19]: 88% | Activity [20]: 25% | Activity [21]: 187% | Activity [22]: 55% | Activity [23]: 38% | Activity [24]: 77% | Activity [25]: 109% | Activity [26]: 42% | Activity [27]: -9% | Activity [28]: 61% | Activity [29]: 21% | pIC50 [30]: < 4.34 | Activity [31]: 64% | Activity [11]: 48% | Activity [32]: 106% | Activity [33]: 197% | Activity [34]: 1% | Activity [35]: 140% | Activity [36]: 53% | Activity [37]: 114% | inhibition (INH) [38]: 0% | Activity [39]: 111% | pIC50 [40]: < 4.34
